From patent publication US8222380B2, “Amorphous telithromycin compound” (Sandoz AG, priority 2006, dated 2012)

Columns and labels:
[1] = Stress storage in closed vial, impurity increase by HPLC; format: physicochemical; conditions: closed vial at 80° C. for 24 hours; spray-dried sample of Example 1
Experimental: The sample was stressed in a closed vial at 80° C. for 24 hours. An increase in impurities of 0.2 area % was observed when measured by HPLC under the following conditions: column: symmetry C18 3.5 μm; eluent: buffer pH 4.4 (4.76 g KH2PO4 in 2000 ml H2O adjusted to pH 4.4 using H3PO4), acetonitrile (2000 ml buffer+666 ml acetonitrile); measurement at a wavelength of 205 nm; inj. Vol […]; temperature 40° C.

[2] = Stability of the amorphous state on storage judged by XRPD; format: physicochemical; conditions: after 8 weeks of storage
Experimental: The invention therefore relates to a stable amorphous form of telithromycin (3-De[(2,6-dideoxy-3-C-methyl-3-O-methyl-α-L-ribohexopyranosyl)oxy]-11,12-dideoxy-6-O-methyl-3-oxo-12,11-[oxycarbonyl[[4-[4-(3-pyridinyl)-1H-imidazol-1-yl]butyl]imino]]erythromycin). […] The stable amorphous form of telithromycin as obtained according to example 2 was analyzed by X-ray powder diffraction diagrams, measured using an AXS-Bruker D-8 diffractometer (Cu-radiation, Bragg Brentano Optics, 40 kV, 40 mA, steps 0.01°, time 2 seconds, cut-off 40°, standard sample carrier).

increase in impurities measured by HPLC [1]: 0.2 area %
Compound: CCC1OC(=O)[C@H](C)C(=O)[C@H](C)[C@@H](OC2OC(C)CC(N(C)C)C2O)[C@](C)(OC)C[C@@H](C)C(=O)[C@H](C)[C@H]2N(CCCCn3cnc(-c4cccnc4)c3)C(=O)O[C@]12C (stereo partly drawn) [amorphous telithromycin, 3-De[(2,6-dideoxy-3-C-methyl-3-O-methyl-α-L-ribohexopyranosyl)oxy]-11,12-dideoxy-6-O-methyl-3-oxo-12,11-[oxycarbonyl[[4-[4-(3-pyridinyl)-1H-imidazol-1-yl]butyl]imino]]erythromycin]
presence of crystalline telithromycin as judged by X-ray powder diffractogram [2]: no signs of the presence of crystalline telithromycin
